Source: patent publication US20100081713A1, “COMPOSITIONS AND METHODS FOR TREATING VIRAL INFECTIONS” (priority 2008, published 2010)
Entries after “also recorded” stand apart in the source; their conditions may differ.

System: influenza A/PR/8/34
Set-up: species or system C57/BL6 mice
Conditions: mouse, in vivo

Compound: CN[C@H]1CC[C@@H](c2ccc(Cl)c(Cl)c2)c2ccccc21 [Sertraline]
- survival rate, result in words: dose dependant increase in survival rate; also recorded: improves survival rate
